Measured values taken from patent publication US20020082262A1, “Substituted bicyclic compounds for treating multidrug resistance” (priority 2000, published 2002).

Test system: NIH-MDR1-G185 cells
Test: Fluorescent Substrate Accumulation Assay (BODIPY-FL Taxol accumulation)
Assay type: cell-based
Settings: MDR modulator 10 micromolar, BODIPY-FL Taxol 500 nM, 40 min at 37° C.; fluorescence in NIH-MDR1-G185 cells in presence / absence of modulator
Method: Fluorescent Substrate Accumulation Assay NIH-MDR1-G185 cells (obtained from M. Gottesman, NIH) were harvested and resuspended in RPMI-1640 containing L-glutamine, 10% Cosmic Calf Serum and penicillin-streptomycin. Cell suspension aliquots of 175 microliters (1×10^5 cells) were added to individual wells of a 96 well microtiter plate and preincubated for 15 min at 37° C. with 20 microliters MDR modulator diluted in cell culture media to give a final concentration of 10 micromolar. Control wells received no modulating agent. BODIPY-FL Taxol (Molecular Probes, Eugene, Oreg.) was added to each well in 10 microliter aliquots to give a final concentration of 500 nM and cells were incubated for 40 min at 37° C. Cells were centrifuged at 100×g for 5 min at 4° C. and the cell pellet washed with 200 microliters cold PBS to remove fluorescent medium from wells. Cells were centrifuged once more, media removed, and cells resuspended in 200 microliters cold PBS. Fluorescence accumulation was measured in a fluorescence plate reader fitted with an excitation filter of 485 nm and an emission filter of 538 nm. BODIPY-FL taxol accumulation in the cells was calculated as follows: Accumulation Index=(fluorescence in NIH-MDR1-G185 cells in the presence of modulator)/(fluorescence in NIH-MDR1-G185 cells in absence of modulator)

| Compound | Accumulation Index |
| --- | --- |
| O=C(C(CCCc1ccccc1)CCCc1ccccc1)N1CCC(NC2CCN(C[C@@H](O)COc3cccc4ncccc34)CC2)CC1 [Example 15] | 6 |
| O=C(CN1CCN(C[C@@H](O)COc2cccc3ncccc23)CC1)N[C@@H](Cc1cccnc1)C(=O)N1CCC(C(=O)NC(CCCc2ccccc2)CCCc2ccccc2)CC1 [Example 27, 1-(N-{1-[2-(R)-hydroxy-3-(quinolin-5-yloxy)-propyl]-piperazine-4-acetyl}-[3-(3-pyridyl)-alanyl])-piperidine-4-carboxylic acid [4-phenyl-1(3-phenyl-propyl)-butyl]-amide] | 8 |
| 1-[5-Phenyl-2-(3-phenyl-propyl)-pentanoic acid {4-[2-hydroxy-3-(quinolin-5-yloxy)-propyl]-piperazin-4-yl}-amide]piperidine [Example 10] | 8 |
| O=C(CN1CCN(C[C@@H](O)COc2cccc3ncccc23)CC1)NC[C@H]1CC[C@H](C(=O)NC(CCCc2ccccc2)CCCc2ccccc2)CC1 [Example 22, N-{1-[2-(R)-hydroxy-3-(quinolin-5-yloxy)-propyl]-piperazine-4-acetyl}-trans-4-aminomethyl-1-cyclohexanecarboxylic acid [4-phenyl-1-(3-phenyl-propyl)-butyl]-amide] | 7 |
| O=C(C(CCCc1ccccc1)CCCc1ccccc1)N1CCN(C2CCN(C[C@@H](O)COc3cccc4ncccc34)CC2)CC1 [Example7, 4-[5-phenyl-2-(3-phenyl-propyl)-pentanoic acid {1-[2-hydroxy-3-(quinolin-5-yloxy)-propyl]-piperazin-4-yl}-amide]piperidine] | 9 |
